Patent US20050075400A1, “Polymorphic forms of nateglinide” (priority 2002, published 2005)
Like-named read-outs stand apart in the source and are kept apart here.

Key:
[1] = Thermal stability / form transformation on heating or drying (XRPD); type: physicochemical; conditions: for form obtained upon drying / heating: heating under ambient or reduced pressure, generally about 40-80° C.; for form after heating at 120° C.: 1 h, atmospheric pressure; for form after heating at 120° C. / form after heating at about 100° C.: XRPD; for form after heating at about 100° C.: 100° C. oil bath, 8.5 h
Procedure: The various crystalline forms are related to each other in that drying of one form may result in a transformation to another form, namely nateglinide Forms A, B, D, E, F, G, H, I, J, K, L, M, N, Q, S, T, V, Z, α, β, δ, γ, ε, θ and Ω. The drying is carried out by heating a sample under ambient or reduced pressure. Generally, a preferred temperature is from about 40° C. to about 80° C., more preferably under reduced pressure. […] The term “stable” as used herein refers to a polymorphic change of less than about 5% by weight, more preferably less than about 2%, particularly for Form δ.
Sample of nateglinide form U (˜1 g) was introduced into a 6-gram vial and heated over 8.5 h in a 100° C. oil bath. The vial were extracted from the bath.
Sample of nateglinide form U (˜0.5 g) was heated to 120° C. for 1 h in an atmospheric pressure.
Sample of nateglinide form δ (˜0.5 g) was heated to 120° C. for 1 h in an atmospheric pressure.

[2] = Polymorphic stability on storage at room temperature for 24 h (XRPD); type: physicochemical; conditions: for crystal form after storage at RT for 24 h: room temperature and pressure, 24 h (about a day), open bottle, XRPD
Procedure: The various crystalline forms are also analyzed by Thermal Gravimetric Analysis (TGA). […] In contrast to the above listed forms, TGA profiles of forms L, P, U, α, δ and σ show no significant weight loss. These polymorphic forms of nateglinide are free of bound solvents, i.e., less than about 2% LOD. Table II lists the solvents used for the preparation for nateglinide solvated forms, as well as LOD values based on TGA analysis.
Storage at room temperature and pressure may also cause a transition of one form to another.
X-Ray diffraction was performed on X-Ray powder diffractometer, Scintag variable goniometer, Cu-tube, solid state detector. Sample holder: A round standard aluminum sample holder with round zero background quartz plate.
The sample was put on the sample holder and immediately analyzed as is. Scanning parameters: Range: 2-40 deg 2θ, Continuos Scan, Rate: 3 deg./min.

[3] = demonstrated by DSC; cited from earlier work
[4] = Stability at about 40° C. and about 75% relative humidity; type: physicochemical; conditions: about 40° C., relative humidity about 75%
Procedure: Crystalline Form δ is stable at a temperature of about 40° C. and a relative humidity of about 75% for at least about 3 months.

[5] = cited from earlier work
[6] = Absorption of solvent vapors by nateglinide Form H; type: physicochemical; conditions: for Δ (overweight): room temperature, 4 d
Procedure: Nateglinide (3.50 g) was added to a polypropylene can and weighed. The can was introduced into a bigger polypropylene container containing a solvent, and stored at room temperature. The can was removed from the container and weighed (Wfinal). The can content was divided into 2 portions. One portion was dried at a temperature of 55° C. and a pressure of 20-30 mmHg to constant weight (±0.01 g).

CC(C)[C@H]1CC[C@H](C(=O)N[C@H](Cc2ccccc2)C(=O)O)CC1 [Form Z, nateglinide]
form obtained upon drying / heating [1]: convert to Form B

CC(C)[C@H]1CC[C@H](C(=O)N[C@H](Cc2ccccc2)C(=O)O)CC1 [Form G, nateglinide]
form obtained upon drying / heating [1]: convert to Form B

CC(C)[C@H]1CC[C@H](C(=O)N[C@H](Cc2ccccc2)C(=O)O)CC1 [Form C, nateglinide]
form obtained upon drying / heating [1]: convert to Form B

CC(C)[C@H]1CC[C@H](C(=O)N[C@H](Cc2ccccc2)C(=O)O)CC1 [Form F, nateglinide]
form obtained upon drying / heating [1]: convert to a mixture of Form B and G

CC(C)[C@H]1CC[C@H](C(=O)N[C@H](Cc2ccccc2)C(=O)O)CC1 [Form Q, nateglinide]
form obtained upon drying / heating [1]: convert to Form B
crystal form after storage at RT for 24 h [2]: converts to Form Y
crystal form after storage at RT for 24 h ([2]; listed as Q): Form Y, which contains

CC(C)[C@H]1CC[C@H](C(=O)N[C@H](Cc2ccccc2)C(=O)O)CC1 [Form A, nateglinide]
form obtained upon drying / heating [1]: convert to Form B
form obtained upon drying / heating ([1]; listed as Form a): Form S
crystal form after storage at RT for 24 h [2]: partially converts to Form B
crystal form after storage at RT for 24 h ([2]; listed as A): conversion to Form B

CC(C)[C@H]1CC[C@H](C(=O)N[C@H](Cc2ccccc2)C(=O)O)CC1 [Form I, nateglinide]
crystal form after storage at RT for 24 h [2]: converts to Form L
crystal form after storage at RT for 24 h ([2]; listed as I): Form L

CC(C)[C@H]1CC[C@H](C(=O)N[C@H](Cc2ccccc2)C(=O)O)CC1 [Form Ω, nateglinide]
form after drying in a vacuum oven ([1]; 50° C., vacuum oven, overnight, XRD): mixture of Form omega and Form Z
form obtained upon drying / heating [1]: convert to Form B

CC(C)[C@H]1CC[C@H](C(=O)N[C@H](Cc2ccccc2)C(=O)O)CC1 [Form N, nateglinide]
form obtained upon drying / heating [1]: Form L

CC(C)[C@H]1CC[C@H](C(=O)N[C@H](Cc2ccccc2)C(=O)O)CC1 [Form σ, nateglinide]
thermal stability (conversion to another form upon heating) [1]: thermally stable

CC(C)[C@H]1CC[C@H](C(=O)N[C@H](Cc2ccccc2)C(=O)O)CC1 [Form β, nateglinide]
form obtained upon drying / heating [1]: convert to Form B

CC(C)[C@H]1CC[C@H](C(=O)N[C@H](Cc2ccccc2)C(=O)O)CC1 [Form B, nateglinide]
thermal stability (conversion to another form upon heating) [1]: thermally stable
stability during grinding [3]: unstable and susceptible to change during grinding

CC(C)[C@H]1CC[C@H](C(=O)N[C@H](Cc2ccccc2)C(=O)O)CC1 [Form M, nateglinide]
form obtained upon drying / heating [1]: Form L

CC(C)[C@H]1CC[C@H](C(=O)N[C@H](Cc2ccccc2)C(=O)O)CC1 [Form α, nateglinide]
thermal stability (conversion to another form upon heating) [1]: somewhat stable
form obtained upon drying / heating [1]: convert to Form B

CC(C)[C@H]1CC[C@H](C(=O)N[C@H](Cc2ccccc2)C(=O)O)CC1 [Form O, nateglinide]
thermal stability (conversion to another form upon heating) [1]: somewhat stable

CC(C)[C@H]1CC[C@H](C(=O)N[C@H](Cc2ccccc2)C(=O)O)CC1 [Form ε, nateglinide]
form obtained upon drying / heating [1]: Form H

CC(C)[C@H]1CC[C@H](C(=O)N[C@H](Cc2ccccc2)C(=O)O)CC1 [Form δ, nateglinide]
thermal stability (conversion to another form upon heating) [1]: somewhat stable
polymorph after drying in a stirred reactor ([1]; 60 mmHg vacuum, 60° C., 6 hours): remained delta form
stability when heated to 60° C. overnight ([1]; 60° C., overnight (at least about 8 hours)): stable
form after heating at 120° C. [1]: results in Form B
form after heating at 120° C. ([1]; listed as form δ): Form B
polymorphic form after drying in a fluidized bed drier ([1]; 4 hours at 60° C.): delta
form obtained upon drying / heating [1]: convert to Form B
time for which the crystalline form is stable [4]: at least 3 months

CC(C)[C@H]1CC[C@H](C(=O)N[C@H](Cc2ccccc2)C(=O)O)CC1 [Form θ, nateglinide]
form obtained upon drying / heating [1]: convert to Form B

CC(C)[C@H]1CC[C@H](C(=O)N[C@H](Cc2ccccc2)C(=O)O)CC1 [Form E, nateglinide]
form obtained upon drying / heating [1]: convert to Form B

CC(C)[C@H]1CC[C@H](C(=O)N[C@H](Cc2ccccc2)C(=O)O)CC1 [Form Y, nateglinide]
thermal stability (conversion to another form upon heating) [1]: somewhat stable

CC(C)[C@H]1CC[C@H](C(=O)N[C@H](Cc2ccccc2)C(=O)O)CC1 [nitromethane solvates of Form Epsilon, nateglinide]
form obtained upon drying / heating [1]: Forms H or P

CC(C)[C@H]1CC[C@H](C(=O)N[C@H](Cc2ccccc2)C(=O)O)CC1 [Form J, nateglinide]
form obtained upon drying / heating [1]: convert to Form B
XRD pattern after storage at RT for overnight ([2]; room temperature, overnight): XRD pattern slightly

CC(C)[C@H]1CC[C@H](C(=O)N[C@H](Cc2ccccc2)C(=O)O)CC1 [Form L, nateglinide]
thermal stability (conversion to another form upon heating) [1]: thermally stable

CC(C)[C@H]1CC[C@H](C(=O)N[C@H](Cc2ccccc2)C(=O)O)CC1 [nateglinide, (−)—N-(trans-4-isopropylcyclohexanecarbonyl)-D-Phenylalanine]
solubility ([5]; in acetonitrile): sparingly soluble
solubility ([5]; in chloroform): freely soluble
solubility ([5]; in ethanol): freely soluble
solubility ([5]; in ether): soluble
solubility ([5]; in methanol): freely soluble
solubility ([5]; in octanol): sparingly soluble
solubility ([5]; in water): practically insoluble

CC(C)[C@H]1CC[C@H](C(=O)N[C@H](Cc2ccccc2)C(=O)O)CC1 [Form U, nateglinide]
thermal stability (conversion to another form upon heating) [1]: thermally stable
form after heating at about 100° C. [1]: does not undergo a transition
form after heating at about 100° C. ([1]; listed as form U): Form U
form after heating at 120° C. [1]: Form U

CC(C)[C@H]1CC[C@H](C(=O)N[C@H](Cc2ccccc2)C(=O)O)CC1 [Form V, nateglinide]
form obtained upon drying / heating [1]: Form H

CC(C)[C@H]1CC[C@H](C(=O)N[C@H](Cc2ccccc2)C(=O)O)CC1 [Form T, nateglinide]
form obtained upon drying / heating [1]: convert to a mixture of Form B and G
crystal form after storage at RT for 24 h [2]: converts to Form E
crystal form after storage at RT for 24 h ([2]; listed as T): Form E

CC(C)[C@H]1CC[C@H](C(=O)N[C@H](Cc2ccccc2)C(=O)O)CC1 [Form H, nateglinide]
thermal stability (conversion to another form upon heating) [1]: thermally stable
Δ (overweight) ([6]; Acetone vapors, 3.50 g NTG): 0.08
Δ (overweight) ([6]; DCM vapors, 3.49 g NTG): 0.04
Δ (overweight) ([6]; EtOH vapors, 3.50 g NTG): 0.52
Δ (overweight) ([6]; MeOH vapors, 3.50 g NTG): 0.18
Δ (overweight) ([6]; Water vapors, 3.50 g NTG): 0.02
stability in the presence of solvent vapors ([6]; vapors of water and acetone): stable

CC(C)[C@H]1CC[C@H](C(=O)N[C@H](Cc2ccccc2)C(=O)O)CC1 [acetonitrile solvate of Form Epsilon, nateglinide]
form obtained upon drying / heating [1]: Form B
